According to patent publication US20240360177A1, “PEPTIDES WITH ANTIMICROBIAL ACTIVITIES” (priority 2021, published 2024):
Values after ≈ are worked out from the molar mass of the structure shown. Where two headings read alike, the source gives them in different places. Non-standard residues stand in square brackets, D forms with d. Residues, ends and D or L forms follow the SMILES beside them. hLeu = CC(C)CC[C@H](N)C(=O)O; NBuGly = CCCCNCC(=O)O; AEA = NCCOCC(=O)O; Ava = NCCCCC(=O)O

| Compound | MIC C. auris (C. auris; 24 h) [µg/mL] | MIC C. dubliniensis (C. dubliniensis; 24 h) [µg/mL] | MIC C. albicans (C. albicans; 24 h) [µg/mL] | MIC C. parapsilosis (C. parapsilosis; 24 h) [µg/mL] | MIC C. tropicalis (C. tropicalis; 24 h) [µg/mL] | MIC C. glabrata (C. glabrata; 24 h) [µg/mL] | MIC C. krusei (C. krusei; 24 h) [µg/mL] | MIC C. auris (C. auris; CDC 386, 24 hrs) [µg/mL] | MIC C. dubliniensis (C. dubliniensis; ATCC MYA-578, 24 hrs) [µg/mL] | MIC C. albicans (C. albicans; ATCC 90028 or 90029, 24 hrs) [µg/mL] | MIC C. parapsilosis (C. parapsilosis; ATCC 22019, 24 hrs) [µg/mL] | MIC C. tropicalis (C. tropicalis; ATCC 90874, 24 hrs) [µg/mL] | MIC C. glabrata (C. glabrata; ATCC 90030, 24 hrs) [µg/mL] | MIC C. krusei (C. krusei; MMX 7135, 24 hrs) [µg/mL] |
| --- | --- | --- | --- | --- | --- | --- | --- | --- | --- | --- | --- | --- | --- | --- |
| N=C(N)NCCC[C@@H](N)C(=O)N[C@@H](CCCNC(=N)N)C(=O)N[C@H](CCCNC(=N)N)C(=O)NCCCCC(=O)N[C@H](CCCNC(=N)N)C(=O)N[C@@H](CCCNC(=N)N)C(=O)N[C@H](CCCNC(=N)N)C(=O)NCCCCC(=O)N[C@H](CCCNC(=N)N)C(=O)N[C@@H](CCCNC(=N)N)C(=O)N[C@H](CCCNC(=N)N)C(=O)N[C@@H](CCCNC(=N)N)C(=O)NCCCCC(=O)N[C@H](CCCNC(=N)N)C(=O)N[C@@H](CCCNC(=N)N)C(=O)N[C@H](CCCNC(=N)N)C(=O)N[C@@H](CCCNC(=N)N)C(=O)O [SEQ ID NO: 19, rRr-(Ava)-rRr-(Ava)-rRrR-(Ava)-rRrR] (H-[dR]R[dR][Ava][dR]R[dR][Ava][dR]R[dR]R[Ava][dR]R[dR]R-OH) | 2 (≈ 0.799 µM) | 0.5 (≈ 0.2 µM) | 0.5 (≈ 0.2 µM) | 0.25 (≈ 0.0999 µM) | 0.5 (≈ 0.2 µM) | 0.5 (≈ 0.2 µM) | 1 (≈ 0.4 µM) |  |  |  |  |  |  |  |
| N=C(N)NCCC[C@@H](N)C(=O)N[C@@H](CCCNC(=N)N)C(=O)N[C@H](CCCNC(=N)N)C(=O)NCCCCC(=O)N[C@H](CCCNC(=N)N)C(=O)N[C@@H](CCCNC(=N)N)C(=O)N[C@H](CCCNC(=N)N)C(=O)NCCCCC(=O)N[C@H](CCCNC(=N)N)C(=O)N[C@@H](CCCNC(=N)N)C(=O)N[C@H](CCCNC(=N)N)C(=O)N[C@@H](CCCNC(=N)N)C(=O)NCCCCC(=O)N[C@H](CCCNC(=N)N)C(=O)N[C@@H](CCCNC(=N)N)C(=O)N[C@H](CCCNC(=N)N)C(=O)N[C@@H](CCCNC(=N)N)C(=O)N[C@@H](CCC(=O)O)C(=O)O [SEQ ID NO: 20, rRr-(Ava)-rRr-(Ava)-rRrR-(Ava)-rRrR-Glu] (H-[dR]R[dR][Ava][dR]R[dR][Ava][dR]R[dR]R[Ava][dR]R[dR]RE-OH) |  |  |  |  |  |  |  | 16 (≈ 6.08 µM) | 0.5 (≈ 0.19 µM) | 0.5 (≈ 0.19 µM) | 0.25 (≈ 0.095 µM) | 0.5 (≈ 0.19 µM) | 1 (≈ 0.38 µM) | 2 (≈ 0.76 µM) |
| N=C(N)NCCC[C@@H](N)C(=O)N[C@@H](CCCNC(=N)N)C(=O)N[C@H](CCCNC(=N)N)C(=O)N[C@@H](CCCNC(=N)N)C(=O)NCCCCC(=O)N[C@H](CCCNC(=N)N)C(=O)N[C@@H](CCCNC(=N)N)C(=O)N[C@H](CCCNC(=N)N)C(=O)N[C@@H](CCCNC(=N)N)C(=O)NCCCCC(=O)N[C@H](CCCNC(=N)N)C(=O)N[C@@H](CCCNC(=N)N)C(=O)N[C@H](CCCNC(=N)N)C(=O)NCCCCC(=O)N[C@H](CCCNC(=N)N)C(=O)N[C@@H](CCCNC(=N)N)C(=O)N[C@H](CCCNC(=N)N)C(N)=O [SEQ ID NO: 21, rRrR-(Ava)-rRrR-(Ava)-rRr-(Ava)-rRr-NH2] (H-[dR]R[dR]R[Ava][dR]R[dR]R[Ava][dR]R[dR][Ava][dR]R[dR]-NH2) | 0.5 (≈ 0.2 µM) | 0.5 (≈ 0.2 µM) | 0.5 (≈ 0.2 µM) | 0.25 (≈ 0.1 µM) | 0.5 (≈ 0.2 µM) | 0.5 (≈ 0.2 µM) | 0.5 (≈ 0.2 µM) |  |  |  |  |  |  |  |
| CCCCN(CC(=O)N[C@H](CCCNC(=N)N)C(=O)N[C@@H](CCCNC(=N)N)C(=O)N[C@H](CCCNC(=N)N)C(=O)N[C@@H](CCCNC(=N)N)C(N)=O)C(=O)[C@H](CCCNC(=N)N)NC(=O)[C@@H](CCCNC(=N)N)NC(=O)[C@H](CCCNC(=N)N)NC(=O)[C@@H](CCCNC(=N)N)NC(=O)CN(CCCC)C(=O)[C@@H](CCCNC(=N)N)NC(=O)[C@H](CCCNC(=N)N)NC(=O)[C@@H](CCCNC(=N)N)NC(=O)CN(CCCC)C(=O)[C@@H](CCCNC(=N)N)NC(=O)[C@H](CCCNC(=N)N)NC(=O)[C@H](N)CCCNC(=N)N [SEQ ID NO: 35, rRr-(ButylGly)-rRr-(ButylGly)-rRrR-(ButylGly)-rRrR-NH2] (H-[dR]R[dR][NBuGly][dR]R[dR][NBuGly][dR]R[dR]R[NBuGly][dR]R[dR]R-NH2) | 0.5 (≈ 0.197 µM) | 0.5 (≈ 0.197 µM) | 0.5 (≈ 0.197 µM) | 0.25 (≈ 0.0983 µM) | 0.5 (≈ 0.197 µM) | 0.5 (≈ 0.197 µM) | 0.5 (≈ 0.197 µM) |  |  |  |  |  |  |  |
| N=C(N)NCCC[C@@H](N)C(=O)N[C@@H](CCCNC(=N)N)C(=O)N[C@H](CCCNC(=N)N)C(=O)NCCCCC(=O)N[C@H](CCCNC(=N)N)C(=O)N[C@@H](CCCNC(=N)N)C(=O)N[C@H](CCCNC(=N)N)C(=O)NCCOCC(=O)N[C@H](CCCNC(=N)N)C(=O)N[C@@H](CCCNC(=N)N)C(=O)N[C@H](CCCNC(=N)N)C(=O)N[C@@H](CCCNC(=N)N)C(=O)NCCCCC(=O)N[C@H](CCCNC(=N)N)C(=O)N[C@@H](CCCNC(=N)N)C(=O)N[C@H](CCCNC(=N)N)C(=O)N[C@@H](CCCNC(=N)N)C(N)=O [SEQ ID NO: 48, rRr-(Ava)-rRr-(Aea)-rRrR-(Ava)-rRrR-NH2] (H-[dR]R[dR][Ava][dR]R[dR][AEA][dR]R[dR]R[Ava][dR]R[dR]R-NH2) |  | 0.5 (≈ 0.2 µM) | 0.5 (≈ 0.2 µM) | 0.5 (≈ 0.2 µM) | 0.5 (≈ 0.2 µM) | 1 (≈ 0.4 µM) |  |  |  |  |  |  |  |  |
| N=C(N)NCCC[C@@H](N)C(=O)N[C@@H](CCCNC(=N)N)C(=O)N[C@H](CCCNC(=N)N)C(=O)NCCCCC(=O)N[C@H](CCCNC(=N)N)C(=O)N[C@@H](CCCNC(=N)N)C(=O)N[C@H](CCCNC(=N)N)C(=O)NCCCCC(=O)N[C@H](CCCNC(=N)N)C(=O)N[C@@H](CCCNC(=N)N)C(=O)N[C@H](CCCNC(=N)N)C(=O)N[C@@H](CCCNC(=N)N)C(=O)NCCOCC(=O)N[C@H](CCCNC(=N)N)C(=O)N[C@@H](CCCNC(=N)N)C(=O)N[C@H](CCCNC(=N)N)C(=O)N[C@@H](CCCNC(=N)N)C(N)=O [SEQ ID NO: 49, rRr-(Ava)-rRr-(Ava)-rRrR-(Aea)-rRrR-NH2] (H-[dR]R[dR][Ava][dR]R[dR][Ava][dR]R[dR]R[AEA][dR]R[dR]R-NH2) |  | 0.5 (≈ 0.2 µM) | 1 (≈ 0.4 µM) | 0.5 (≈ 0.2 µM) | 0.5 (≈ 0.2 µM) | 1 (≈ 0.4 µM) |  |  |  |  |  |  |  |  |
| N=C(N)NCCC[C@@H](N)C(=O)N[C@@H](CCCNC(=N)N)C(=O)N[C@H](CCCNC(=N)N)C(=O)NCCCCC(=O)N[C@H](CCCNC(=N)N)C(=O)N[C@@H](CCCNC(=N)N)C(=O)N[C@H](CCCNC(=N)N)C(=O)NCCOCC(=O)N[C@H](CCCNC(=N)N)C(=O)N[C@@H](CCCNC(=N)N)C(=O)N[C@H](CCCNC(=N)N)C(=O)N[C@@H](CCCNC(=N)N)C(=O)NCCOCC(=O)N[C@H](CCCNC(=N)N)C(=O)N[C@@H](CCCNC(=N)N)C(=O)N[C@H](CCCNC(=N)N)C(=O)N[C@@H](CCCNC(=N)N)C(N)=O [SEQ ID NO: 51, rRr-(Ava)-rRr-(Aea)-rRrR-(Aea)-rRrR-NH2] (H-[dR]R[dR][Ava][dR]R[dR][AEA][dR]R[dR]R[AEA][dR]R[dR]R-NH2) |  | 0.25 (≈ 0.0998 µM) | 0.5 (≈ 0.2 µM) | 0.25 (≈ 0.0998 µM) | 0.5 (≈ 0.2 µM) | 1 (≈ 0.399 µM) |  |  |  |  |  |  |  |  |
| CC(C)CC[C@H](NC(=O)[C@@H](CCCNC(=N)N)NC(=O)[C@H](CCCNC(=N)N)NC(=O)[C@@H](CCCNC(=N)N)NC(=O)[C@@H]1CCCN1C(=O)[C@H](CCCNC(=N)N)NC(=O)[C@@H](CCCNC(=N)N)NC(=O)[C@H](CCCNC(=N)N)NC(=O)[C@@H](CCCNC(=N)N)NC(=O)[C@@H]1CCCN1C(=O)[C@@H](CCCNC(=N)N)NC(=O)[C@H](CCCNC(=N)N)NC(=O)[C@@H](CCCNC(=N)N)NC(=O)[C@@H]1CCCN1C(=O)[C@@H](CCCNC(=N)N)NC(=O)[C@H](CCCNC(=N)N)NC(=O)[C@H](N)CCCNC(=N)N)C(N)=O [SEQ ID NO: 93, rRr-P-rRr-P-rRrR-P-rRr(hLeu)-NH2] (H-[dR]R[dR]P[dR]R[dR]P[dR]R[dR]RP[dR]R[dR][hLeu]-NH2) |  | 0.5 (≈ 0.203 µM) | 0.5 (≈ 0.203 µM) | 1 (≈ 0.406 µM) | 0.5 (≈ 0.203 µM) | 1 (≈ 0.406 µM) |  |  |  |  |  |  |  |  |
| CC(C)CC[C@H](NC(=O)[C@@H](CCCNC(=N)N)NC(=O)[C@H](CCCNC(=N)N)NC(=O)[C@@H](CCCNC(=N)N)NC(=O)[C@@H]1CCCN1C(=O)[C@H](CCCNC(=N)N)NC(=O)[C@@H](CCCNC(=N)N)NC(=O)[C@H](CCCNC(=N)N)NC(=O)[C@@H](CCCNC(=N)N)NC(=O)[C@@H]1CCCN1C(=O)[C@@H](CCCNC(=N)N)NC(=O)[C@H](CCCNC(=N)N)NC(=O)[C@@H](CCCNC(=N)N)NC(=O)[C@@H]1CCCN1C(=O)[C@@H](CCCNC(=N)N)NC(=O)[C@H](CCCNC(=N)N)NC(=O)[C@@H](N)CCC(C)C)C(N)=O [SEQ ID NO: 95, (hLeu)Rr-P-rRr-P-rRrR-P-rRr(hLeu)-NH2] (H-[hLeu]R[dR]P[dR]R[dR]P[dR]R[dR]RP[dR]R[dR][hLeu]-NH2) |  | 0.5 (≈ 0.205 µM) | 1 (≈ 0.41 µM) | 1 (≈ 0.41 µM) | 1 (≈ 0.41 µM) | 0.5 (≈ 0.205 µM) |  |  |  |  |  |  |  |  |
| rR-(Apg)-rR-(Apg)-rRr-(Apg)-rRr-NH2 [SEQ ID NO: 39] |  | 0.12 | 0.25 | 0.12 | 0.25 | 8 |  |  |  |  |  |  |  |  |
